From patent publication US10245275B2 (ViiV HEALTHCARE UK (NO.4) LIMITED, priority 2014, dated 2019)
Like-named read-outs stand apart in the source and are kept apart here.

Experiments:
[1] = system: HIV-1 NL4-3 gag A364V virus; experiment: microbe, parasite or virus in culture; assay type: cell-based
In short: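 Recombinant NL4-3 reporter virus with Renilla luciferase replacing part of nef, made by transfection of 293T cells. MT-2 cells infected for 4-5 days with serial inhibitor dilutions; antiviral activity quantified by luciferase activity.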

[2] = system: WT (wild-type HIV virus; recombinant NL4-3 virus); experiment: microbe, parasite or virus in culture; assay type: cell-based, HIV-1
In short: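 MT-2 cells infected 4-5 days with NL4-3 carrying Renilla luciferase in place of part of nef (Gag P373S), virus made by 293T transfection, with serial inhibitor dilutions. Antiviral activity read as luciferase activity by a modified dual-luciferase read-out.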

[3] = Human immunodeficiency virus 1, NL43, MT2, read-out: A364V (EC50, uM), Table 1 regular screen, MT-2 cells, luciferase readout
[4] = Human immunodeficiency virus 1, NL43, MT2, read-out: WT (EC50, uM), Table 1 regular screen, MT-2 cells, luciferase readout
[5] = Human immunodeficiency virus 1, NL43, MT2, read-out: A364V (EC50, uM), Table 1 regular screen, class symbol
[6] = Human immunodeficiency virus 1, NL43, MT2, read-out: WT (EC50, uM), Table 1 regular screen, class symbol

C=C(C)[C@@H]1CC[C@]2(NCCN3CCN(C(C)=O)C(C)(C)C3=O)CC[C@]3(C)[C@H](CC[C@@H]4[C@@]5(C)CC=C(C6=CC[C@](CF)(C(=O)O)CC6)C(C)(C)[C@@H]5CC[C@]43C)[C@@H]12 [Example 2-27, (S)-4-((1R,3aS,5aR,5bR,7aR,11aS,11bR,13aR,13bR)-3a-((2-(4-acetyl-3,3-dimethyl-2-oxopiperazin-1-yl)ethyl)amino)-5a,5b, 8,8,11a-pentamethyl-1-(prop-1-en-2-yl)-2,3,3a,4,5,5a,5b,6,7,7a,8,11,11a,11b,12,13,13a,13b-octadecahydro-1H-cyclopenta[a]chrysen-9-yl)-1-(fluoromethyl)cyclohex-3-enecarboxylic acid]
EC50 [1, 3]: 0.0201 µM | EC50 [2, 4]: 0.00577 µM

C=C(C)[C@@H]1CC[C@]2(NCCCN3CCCC3=O)CC[C@]3(C)[C@H](CC[C@@H]4[C@@]5(C)CC=C(C6=CC[C@](CF)(C(=O)O)CC6)C(C)(C)[C@@H]5CC[C@]43C)[C@@H]12 [Example 21, (S)-1-(fluoromethyl)-4-((1R,3aS,5aR,5bR,7aR,11aS,11bR,13aR,13bR)-5a,5b,8,8,11a-pentamethyl-3a-((3-(2-oxopyrrolidin-1-yl)propyl)amino)-1-(prop-1-en-2-yl)-2,3,3a,4,5,5a,5b,6,7,7a,8,11,11a,11b,12,13,13a,13b-octadecahydro-1H-cyclopenta[a]chrysen-9-yl)cyclohex-3-enecarboxylic acid]
EC50 [1, 5]: > 0.05 µM | EC50 [2, 6]: < 0.05 µM

C=C(C)[C@@H]1CC[C@]2(NCC(=O)N3C[C@@H]4C[C@H]3CS4(=O)=O)CC[C@]3(C)[C@H](CC[C@@H]4[C@@]5(C)CC=C(C6=CC[C@](CF)(C(=O)O)CC6)C(C)(C)[C@@H]5CC[C@]43C)[C@@H]12 [Example 37, (S)-4-((1R,3aS,5aR,5bR,7aR,11aS,11bR,13aR,13bR)-3a-((2-((1S,4S)-2,2-dioxido-2-thia-5-azabicyclo[2.2.1]heptan-5-yl)-2-oxoethyl)amino)-5a,5b,8,8,11a-pentamethyl-1-(prop-1-en-2-yl)-2,3,3a,4,5,5a,5b,6,7,7a,8,11,11a,11 b,12,13,13a,13b-octadecahydro-1H-cyclopenta[a]chrysen-9-yl)-1-(fluoromethyl)cyclohex-3-enecarboxylic acid]
EC50 [1, 5]: > 0.05 µM | EC50 [2, 6]: < 0.05 µM

C=C(C)[C@@H]1CC[C@]2(CN(CCCN3CCS(=O)(=O)CC3)C(C)=O)CC[C@]3(C)[C@H](CC[C@@H]4[C@@]5(C)CC=C(C6=CC[C@@](CF)(C(=O)O)CC6)C(C)(C)[C@@H]5CC[C@]43C)[C@@H]12 [Example 12, (R)-4-((1R,3aS,5aR,5bR,7aR,11aS,11bR,13aR,13bR)-3a-((N-(3-(1,1-dioxidothiomorpholino)propyl)acetamido)methyl)-5a,5b,8,8,11a-pentamethyl-1-(prop-1-en-2-yl)-2,3,3a,4,5,5a,5b,6,7,7a,8,11,11a,11b,12,13,13a,13b-octadecahydro-1H-cyclopenta[a]chrysen-9-yl)-1-(fluoromethyl)cyclohex-3-enecarboxylic acid]
EC50 [1, 5]: > 0.05 µM | EC50 [2, 6]: < 0.05 µM

C=C(C)[C@@H]1CC[C@]2(NCC(=O)N3CCOCC3)CC[C@]3(C)[C@H](CC[C@@H]4[C@@]5(C)CC=C(C6=CC[C@](CF)(C(=O)O)CC6)C(C)(C)[C@@H]5CC[C@]43C)[C@@H]12 [Example 32, (S)-1-(fluoromethyl)-4-((1R,3aS,5aR,5bR,7aR,11aS,11bR,13aR,13bR)-5a,5b, 8,8,11a-pentamethyl-3a-((2-morpholino-2-oxoethyl)amino)-1-(prop-1-en-2-yl)-2,3,3a,4,5,5a,5b,6,7,7a,8,11,11a,11b,12,13,13a,13b-octadecahydro-1H-cyclopenta[a]chrysen-9-yl)cyclohex-3-enecarboxylic acid]
EC50 [1, 5]: > 0.05 µM | EC50 [2, 6]: < 0.05 µM

C=C(C)[C@@H]1CC[C@]2(NCC[C@]3(O)CC[C@@H](S(C)(=O)=O)CC3)CC[C@]3(C)[C@H](CC[C@@H]4[C@@]5(C)CC=C(C6=CC[C@](CF)(C(=O)O)CC6)C(C)(C)[C@@H]5CC[C@]43C)[C@@H]12 [Example 2-19, (S)-1-(fluoromethyl)-4-((1R,3aS,5aR,5bR,7aR,11aS,11bR,13aR,13bR)-3a-((2-((cis)-1-hydroxy-4-(methylsulfonyl)cyclohexyl)ethyl)amino)-5a,5b,8,8,11a-pentamethyl-1-(prop-1-en-2-yl)-2,3,3a,4,5,5a,5b,6,7,7a,8,11,11a,11 b,12,13,13a,13b-octadecahydro-1H-cyclopenta[a]chrysen-9-yl)cyclohex-3-enecarboxylic acid]
EC50 [1, 3]: 0.0222 µM | EC50 [2, 4]: 0.00135 µM

C=C(C)[C@@H]1CC[C@]2(NCCC3(O)CCN(C(C)=O)CC3)CC[C@]3(C)[C@H](CC[C@@H]4[C@@]5(C)CC=C(C6=CC[C@](CF)(C(=O)O)CC6)C(C)(C)[C@@H]5CC[C@]43C)[C@@H]12 [Example 2-15, (S)-4-((1R,3aS,5aR,5bR,7aR,11aS,11bR,13aR,13bR)-3a-((2-(1-acetyl-4-hydroxypiperidin-4-yl)ethyl)amino)-5a,5b, 8,8,11a-pentamethyl-1-(prop-1-en-2-yl)-2,3,3a,4,5,5a,5b,6,7,7a,8,11,11a,11b,12,13,13a,13b-octadecahydro-1H-cyclopenta[a]chrysen-9-yl)-1-(fluoromethyl)cyclohex-3-enecarboxylic acid]
EC50 [1, 3]: 0.151 µM | EC50 [2, 4]: 0.00173 µM

C=C(C)[C@@H]1CC[C@]2(NCC(=O)N3CCC(C)(O)CC3)CC[C@]3(C)[C@H](CC[C@@H]4[C@@]5(C)CC=C(C6=CC[C@](CF)(C(=O)O)CC6)C(C)(C)[C@@H]5CC[C@]43C)[C@@H]12 [Example 30, (S)-1-(fluoromethyl)-4-((1R,3aS,5aR,5bR,7aR,11aS,11bR,13aR,13bR)-3a-((2-(4-hydroxy-4-methylpiperidin-1-yl)-2-oxoethyl)amino)-5a,5b,8,8,11a-pentamethyl-1-(prop-1-en-2-yl)-2,3,3a,4,5,5a,5b,6,7,7a,8,11,11a,11b,12,13,13a,13b-octadecahydro-1H-cyclopenta[a]chrysen-9-yl)cyclohex-3-enecarboxylic acid]
EC50 [1, 3]: 0.551 µM | EC50 [2, 4]: 0.00298 µM

C=C(C)[C@@H]1CC[C@]2(NC(CN)C(F)(F)F)CC[C@]3(C)[C@H](CC[C@@H]4[C@@]5(C)CC=C(C6=CC[C@](CF)(C(=O)O)CC6)C(C)(C)[C@@H]5CC[C@]43C)[C@@H]12 (single isomer, unassigned) [Example 39]
EC50 [1, 3]: 2.03 µM | EC50 [2, 4]: 0.0473 µM

C=C(C)[C@@H]1CC[C@]2(NCCC3CCOCC3)CC[C@]3(C)[C@H](CC[C@@H]4[C@@]5(C)CC=C(C6=CC[C@](CF)(C(=O)O)CC6)C(C)(C)[C@@H]5CC[C@]43C)[C@@H]12 [Example 9, (S)-1-(fluoromethyl)-4-((1R,3aS,5aR,5bR,7aR,11aS,11bR,13aR,13bR)-5a,5b,8,8,11a-pentamethyl-1-(prop-1-en-2-yl)-3a-((2-(tetrahydro-2H-pyran-4-yl)ethyl)amino)-2,3,3a,4,5,5a,5b,6,7,7a,8,11,11a,11b,12,13,13a,13b-octadecahydro-1H-cyclopenta[a]chrysen-9-yl)cyclohex-3-enecarboxylic acid]
EC50 [1, 5]: > 0.05 µM | EC50 [2, 6]: < 0.05 µM

C=C(C)[C@@H]1CC[C@]2(NCCN3C[C@@H]4CC3CS4(=O)=O)CC[C@]3(C)[C@H](CC[C@@H]4[C@@]5(C)CC=C(C6=CC[C@](CF)(C(=O)O)CC6)C(C)(C)[C@@H]5CC[C@]43C)[C@@H]12 (stereo in doubt) [Example 4, (S)-4-((1R,3aS,5aR,5bR,7aR,11aS,11bR,13aR,13bR)-3a-((2-((1S,4S)-2,2-dioxido-2-thia-5-azabicyclo[2.2.1]heptan-5-yl)ethyl)amino)-5a,5b, 8,8,11a-pentamethyl-1-(prop-1-en-2-yl)-2,3,3a,4,5,5a,5b,6,7,7a,8,11,11a,11b,12,13,13a,13b-octadecahydro-1H-cyclopenta[a]chrysen-9-yl)-1-(fluoromethyl)cyclohex-3-enecarboxylic acid]
EC50 [1, 3]: 0.0392 µM | EC50 [2, 4]: 0.00141 µM

CC(C)[C@@H]1CC[C@]2(NCCN3CCS(=O)(=O)CC3)CC[C@]3(C)[C@H](CC[C@@H]4[C@@]5(C)CC=C(C6=CC[C@@](CF)(C(=O)O)CC6)C(C)(C)[C@@H]5CC[C@]43C)[C@@H]12 [Example 22, (R)-4-((1S,3aS,5aR,5bR,7aR,11aS,11bR,13aR,13bR)-3a-((2-(1,1-dioxidothiomorpholino)ethyl)amino)-1-isopropyl-5a,5b, 8,8,11a-pentamethyl-2,3,3a,4,5,5a,5b,6,7,7a,8,11,11a,11b,12,13,13a,13b-octadecahydro-1H-cyclopenta[a]chrysen-9-yl)-1-(fluoromethyl)cyclohex-3-enecarboxylic acid]
EC50 [1, 3]: 0.0513 µM | EC50 [2, 4]: 0.00134 µM

C=C(C)[C@@H]1CC[C@]2(NCCN3CCC(C(=O)O)(C(=O)OCC)CC3)CC[C@]3(C)[C@H](CC[C@@H]4[C@@]5(C)CC=C(C6=CC[C@@](CF)(C(=O)O)CC6)C(C)(C)[C@@H]5CC[C@]43C)[C@@H]12 [Example 17]
EC50 [1, 3]: 3 µM | EC50 [2, 4]: 0.0194 µM

C=C(C)[C@@H]1CC[C@]2(NCCC(C)(C)O)CC[C@]3(C)[C@H](CC[C@@H]4[C@@]5(C)CC=C(C6=CC[C@](CF)(C(=O)O)CC6)C(C)(C)[C@@H]5CC[C@]43C)[C@@H]12 [Example 2-1, (S)-1-(fluoromethyl)-4-((1R,3aS,5aR,5bR,7aR,11aS,11bR,13aR,13bR)-3a-((3-hydroxy-3-methylbutyl)amino)-5a,5b,8,8,11a-pentamethyl-1-(prop-1-en-2-yl)-2,3,3a,4,5,5a,5b,6,7,7a,8,11,11a,11b,12,13,13a,13b-octadecahydro-1H-cyclopenta[a]chrysen-9-yl)cyclohex-3-enecarboxylic acid]
EC50 [1, 5]: > 0.05 µM | EC50 [2, 6]: < 0.05 µM
